Here are results for one compound from patent US11446352B2, “Compositions and methods for inhibiting tumor-induced immune suppression” (priority 2017, dated 2022).

Assay [1] concerns Hsp90 chaperoning machine. Nature of the assay: progesterone receptor (PR) refolding assay using reticulocyte lysate (RRL). It is filed as biochemical. The conditions noted are these: 10 μM EnnA. An excerpt:
(§1) The first bar indicates 100% folding activity of RRL without inhibitor. PR22 indicates the antibody without PR but with RRL and EnnA. PR represents the antibody (PR22) with PR but without RRL. All other samples have PR22, PR, and RRL without (first bar) or with increased concentration of EnnA. FIGS. 1C-1E are line graphs of cell survival versus EnnA concentration (μM) in breast cancer cell lines Hs578T (FIG. 1C), […] (FIG. 1D) and MDA-MB231 (FIG. 1E) upon treatment with EnnA for 48 and 72 h. […] PR alone (PR), antibody (PR22)+RRL, PR+RRL without inhibitor (RRL), PR+RRL with 1 μM 17-AAG (17AAG) PR+RRL with 10 μM BEAU or EnnA. FIGS. 1G-1I are autoradiographs of Western blots of cytosols from various cell lines treated with 17-AAG (1 μM) or EnnA (3 μM) with antibodies against the specified proteins. FIG. 1J is an autoradiograph showing EnnA causes autophagy in Hs578T and MDA-MB453 cell lines. FIGS. 1K-1N are electron microscopy micrographs showing autophagosomes and reduced mitochondria content in Hs578T cells treated with DMSO or EnnA. FIGS. 1O-1P are fluorescence micrographs showing EnnA causing reduced mitochondria content in Hs578T cells. FIGS. 1Q-1BB are fluorescence micrographs showing mitophagy in Hsp578T cells treated with EnnA as indicated by colocalization of the mitochondria marker Cox4 and the autophagy marker LC3BII.
A cell-free high-throughput screen (HTS) platform based on the progesterone receptor (PR) using reticulocyte lysate (RRL) as a source of molecular chaperones was used to screen 175 natural products (Patwardhan C A, et al., J Biomol Screen (2014)). This assay captures the physiological steps of PR refolding by the Hsp90 chaperoning machine and measures the recovery of its hormone-binding activities after mild heat treatment. It has the ability to identify inhibitors as well as activators of the core components of the Hsp90 chaperoning machine (i.e., Hsp90, Hsp70, Hsp40, Hsp90/Hsp70 organizing protein (HOP), and p23), including compounds that target chaperone complexes as well as individual proteins.

The test system of assay [2] is Hsp90 client proteins, Hsp70, Hsp27. As to the kind of experiment: Western blots of cytosols from cell lines treated with 17-AAG or EnnA. Format: cell-based, human.
Description: as §1
Background: Immunoblotting shows a protein as a band on a membrane.

The subject of assay [3] is Hs587T and MDA-MB-453 cell lines. As to the kind of experiment: autophagy, mitochondria content and mitophagy in treated cancer cells. Format: cell-based, human.
Description: as §1

The subject of the next assay is 4T1 cells. Nature of the assay: MTT cell proliferation assay. Format: cell-based, murine. To be noted: 4T1, in vitro, 72 h. An excerpt:
(§2) FIGS. 2I-2K show FACS analysis of Hsp90β expression on the cell surface of E0771 cells treated with DMSO or EnnA. FIGS. 2L-2N show FACS analysis of the ratio of Hsp90α to Hsp90β expression on the cell surface of E0771 cells treated with DMSO or EnnA. FIGS. 2O-2Q show FACS analysis of Hsp90α expression on the cell surface of E0771 cells treated with DMSO or EnnA. FIG. 2R is a bar graph showing expression of Hsp90β on the surface of AT3 cells treated with DMSO or EnnA. FIG. 2S is a bar graph showing expression of Hsp90α on the surface of AT3 cells treated with DMSO or EnnA. FIGS. 2T-2X show FACS analysis of Hsp90β expression on the surface of E0771 tumor cells treated with mIgG, DMSO, or EnnA.
(§3) The mechanism of action of EnnA appears to be different from that of 17-AAG. […] Further studies studies using murine breast cancer cells lines have shown that EnnA kills E0771, AT3, EMT6 and 4T1 in vitro (FIG. 2A-2D).
For orientation: Formazan colour is commonly taken as a measure of viable cells.

The test system of another assay is AT3 cells. As to the kind of experiment: MTT cell proliferation assay. The conditions noted are these: AT3, in vitro, 72 h. Format: cell-based, murine.
Description: as §2, §3

The next assay has as its system E0771 cells. As to the kind of experiment: MTT cell proliferation assay. Format: cell-based, murine. The conditions noted are these: E0771, in vitro, 72 h.
Description: as §2, §3

The subject of another assay is EMT6 cells. As to the kind of experiment: MTT cell proliferation assay. It is filed as cell-based, murine. The conditions noted are these: EMT6, in vitro, 72 h.
Description: as §2, §3

Assay [4] concerns murine breast cancer cells. Nature of the assay: qPCR analysis of mRNA level of cytokines, chemokines, PDL1 and IDO. Format: cell-based. The method, then: FIG. 3A-3B are autoradiographs of a Western blot showing expression of the indicated proteins in control (left lane) and 0.5 μM EnnA-treated (right lane) E0771 (FIG. 3A) and AT3 (FIG. 3B) cells. FIG. 3C is a graph showing FACS analysis of PD-L1 level in AT3 cells. FIGS. 3D-3K are graphs showing qPCR analysis of the mRNA level of cytokines TNFa (FIG. 3D), IL-6 (FIG. 3E), TGFb1 (FIG. 3F) and IL-10 (FIG. 3G), the chemokines S100a9 (FIG. 3J) and CCL3 (FIG. 3K), as well as PDL1 (FIG. 3H) and IDO (FIG. 3I). FIGS. 3L-3Q are micrographs of HEK293 cells transiently transfected with GFP-IDO fusion protein expressing or GFP alone plasmids for 24 h. Cells were then treated with 5 μM EnnA for 6 h and analyzed for green fluorescence and bright light. FIG. 3R is a line graph of μg/ml of tryptophan and its IDO-mediated product kynurenine using the previously reported HPLC-based assay.
On the technique in general: Real-time PCR tracks product formation cycle by cycle.

A further assay concerns E0771 tumors. Nature of the assay: E0771 tumor model in immunocompromised nude mice. Format: in vivo. The conditions noted are these: 10 mg/kg every other day. The method, then: 50,000 E0771 cells were surgically implanted in mammary fad pad of 10 C57BL/6 immunocompetent mice and 10 immunocompromised nude mice. 12 days after surgery, B6 and nude mice were divided into two groups each. the EnnA group was injected with 10 mg/kg of EnnA every other day, and the control group received a mixture of 15% DMSO and 20% cremophor in PBS.

pIC50: −log10 of the molar value.

One may read the pIC50 as −log10 of the IC50, conventionally taken in molar units. With `CC[C@H](C)[C@H]1C(=O)O[C@H](C(C)C)C(=O)N(C)[C@@H]([C@@H](C)CC)C(=O)O[C@H](C(C)C)C(=O)N(C)[C@@H]([C@@H](C)CC)C(=O)O[C@H](C(C)C)C(=O)N1C` [EnnA, Enniatin A], the “level of Hsp90 in PR complexes” value in assay [1] (protein complex analysis after PR reconstitution) was “reduces”. Moreover, the “accumulation of Hsp70-rich PR complexes” value in [1] (protein complex analysis, 1 μM 17-AAG) was “does not induce”. Further, the “stability of Hsp90 client proteins” value in assay [2] (EnnA 3 μM) is given as “destabilization”. In [2] (MAD-MB-453 cells), the “induction of Hsp27” value is “slightly induced”. Further, the “overexpression of Hsp70” value in [2] (all cell lines tested, EnnA 3 μM) was “does not induce overexpression”. Further, the “mitochondria content in cancer cells” value in assay [3] (Hs578T cells) is listed as “reduces”. In assay [3] (Hs578T cells, Cox4 / LC3BII colocalization), the mitophagy result was “induction of mitophagy”. Moreover, in assay [3] (Hs587T and MDA-MB-453 cell lines), the “mode of cell death (apoptosis / autophagy)” value was “induces autophagy”. In the assay on 4T1 cells, this compound showed a negative-log IC50 (pIC50) of roughly 5.60. This compound showed a pIC50 in the assay with AT3 cells of 5.00 to 5.30. In the assay on E0771 cells, the pIC50 was 5.00 to 5.30. Besides, the pIC50 in the assay on EMT6 cells was roughly 5.60. In assay [4], the “level of anti-inflammatory IL-10 mRNA” value was “reduces”, the “mRNA expression of IL-6” value was “significant increase”, the “mRNA expression of TGFβ” value is listed as “significant increase” and the “mRNA expression of TNFα” value was “significant increase”. Moreover, in assay [4], the “mRNA expression of indolamine 2,3 dioxygenase” value is “highly increased”, the “mRNA level of chemokine CCL3” value is “reduces” and the “mRNA level of chemokine S100a9” value is given as “reduces”. For the same compound, the “mRNA and protein levels of PDL-1” value in assay [4] (Western blot / FACS) was “reduces”. Moreover, the “anti-tumor activity (tumor volume)” value in the assay with E0771 tumors is listed as “no significant anti-tumor activity”.
